Reference: patent US20260286573A1, “3D PRINTING ELECTROSPINNING SYSTEMS AND METHODS” (Board of Regents, The University of Texas System, priority 2023, published 2026)

Test: Thermogravimetric analysis (TGA), thermal stability
Assay type: physicochemical
Details: for decrease in mass, initial phase of TGA (surface-absorbed water): 10 °C/min, nitrogen
Method: Thermogravimetric Analysis (TGA). FIG. 13 provides data showing thermogravimetric analysis (TGA) of raw materials and mixtures according to some examples. In some examples, the thermal properties of the raw materials and physical mixtures may be determined through a Mettler-Toledo TGA/DSC1 analyzer (Mettler-Toledo, Schwerzenbach, Switzerland). Sample raw materials and physical mixtures may be placed in an open ceramic crucible and ramped from 35° C. to 600° C. at a rate of 10° C./min. A furnace may be purged using ultra-purified nitrogen at a flow rate of 50 mL/min.
Thermogravimetric analysis (TGA) was conducted to examine the degradation patterns and thermal stabilities of EPO, S100, CUR, RTV, and Xspin bi-fibers (FIG. 13). TGA measures the change in sample mass as a function of temperature using a thermobalance.

| weight loss, second phase of TGA (between 20° and 250° C.) [%] | second weight loss (TGA) (between 30° and 395° C.) | decrease in mass, initial phase of TGA (surface-absorbed water) | weight loss, second phase of TGA (between 245 and 420° C.) [%] | SMILES |
| --- | --- | --- | --- | --- |
| 40 | ~ 50% | no losses |  | CC(C)c1nc(CN(C)C(=O)N[C@H](C(=O)N[C@@H](Cc2ccccc2)C[C@H](O)[C@H](Cc2ccccc2)NC(=O)OCc2cncs2)C(C)C)cs1 [RTV, Ritonavir] |
|  |  | no losses | 60 | COc1cc(/C=C/C(=O)CC(=O)/C=C/c2ccc(O)c(OC)c2)ccc1O [CUR, Curcumin] |
